# Values quoted from earlier work as cited in US20100286187A1, “METHOD OF PREDICTING SURVIVAL OF A NON-SMALL-CELL LUNG CANCER PATIENT TO A CHEMOTHERAPEUTIC TREATMENT” (PANGAEA BIOTECH S.A., priority 2006, published 2010).
# Experiments:
# [1] = tested on: non-small cell lung cancer (NSCLC) patients; conditions: single agent, previously untreated NSCLC patients
# [2] = tested on: non-small cell lung cancer (NSCLC); conditions: randomized study, per arm
Compound,Response rates [1],Median survival [2] [months]
CC(=O)O[C@@]12CO[C@@H]1C[C@H](O)[C@@]1(C)C(=O)[C@H](O)C3=C(C)[C@@H](OC(=O)[C@H](O)[C@@H](NC(=O)OC(C)(C)C)c4ccccc4)C[C@@](O)([C@@H](OC(=O)c4ccccc4)[C@H]21)C3(C)C [Docetaxel],21-38%,–
paclitaxel/carboplatin,–,8.2
